Source: patent publication US6680295B1, “Method and pharmaceutical composition for prevention and treatment of brain damage” (priority 1994, dated 2004)
No end group written: not given here.

How the values were obtained:
[1] = biological target: T1, PACAP binding sites in rat brain membrane preparations (Rattus norvegicus, UniProt P32215); assay: Radioreceptor assay: displacement of 125I-PACAP27 binding to E18 rat brain membranes; conditions: for displacement of 125I-PACAP27 binding: unlabeled peptide
T1 construct: from tissue; host or cells: rat brain membrane preparations (E18 whole brain; other ages and regions also dissected)
T1 sequence (P32215 20-523): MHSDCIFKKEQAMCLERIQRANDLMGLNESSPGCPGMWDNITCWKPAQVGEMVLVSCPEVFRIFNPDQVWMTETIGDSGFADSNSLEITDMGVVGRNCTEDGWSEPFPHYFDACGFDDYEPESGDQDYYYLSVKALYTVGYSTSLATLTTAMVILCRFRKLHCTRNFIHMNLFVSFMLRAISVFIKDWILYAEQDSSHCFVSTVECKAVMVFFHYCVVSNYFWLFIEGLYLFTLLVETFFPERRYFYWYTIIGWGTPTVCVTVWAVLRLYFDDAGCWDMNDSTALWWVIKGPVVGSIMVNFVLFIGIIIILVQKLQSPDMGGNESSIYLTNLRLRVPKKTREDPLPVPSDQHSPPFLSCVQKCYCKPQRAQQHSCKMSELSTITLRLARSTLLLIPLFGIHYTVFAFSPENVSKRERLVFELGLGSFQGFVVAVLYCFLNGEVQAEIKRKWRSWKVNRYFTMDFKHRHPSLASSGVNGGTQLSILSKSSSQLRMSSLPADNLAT
Excerpt: Male CD rats (Charles River Breeding Labs., Wilmington, Mass.) were used throughout this example. The following regions of the brain were dissected at the indicated ages: embryonic day E14 (whole brain); E18 (whole brain, neocortex, hippocampus, and diencephalon); postnatal days P0, P7 and P14 (whole brain, neocortex, hippocampus, diencephalon, and cerebellum); and 1-, 2- and 3-months old (MO) (whole brain, neocortex, hippocampus, diencephalon, and cerebellum). After dissection, each region was immediately frozen on dry-ice and stored at −70 C. for up to 2 months until the receptor and peptide levels were determined. […] Arimura, et al., Endocrinology 129: 2787-2789 (1991). […] Gottschall, et al., Endocrinology 127: 272-277 (1990), and Gottschall, et al., FASEB J 5: 194-199 (1991).
Gottschall, et al., Endocrinology 127: 272-277 (1990) and Gottschall, et al., FASEB J 5: 194-199.

hippocampal CA1 neurons [2] = assay: Forebrain ischemia, hippocampal CA1 neuronal cell death, iv infusion started 24 hrs after ischemia; type: in vivo, rat; conditions: bolus and infusion started 24 hrs after ischemia
Experimental: FIG. 18 is a graph showing the cytoprotective effect of iv infusion of PACAP38 which started 24 hrs. after ischemia in rats.
(§1) The clips were removed 15 minutes later. […] The incision wound was closed.
Neuronal cell death in CA1 induced by forebrain ischemia progresses slowly. One day after ischemia/reperfusion many viable neurons were still seen in CA1. However, nearly all neurons died one week after ischemia. Therefore, if the administration of PACAP38 is started 24 hrs after ischemia, the treatment could possibly still prevent the slow death of the neurons. To test this hypothesis, a bolus iv injection and subsequent iv infusion of PACAP38 was started 24 hrs after ischemia.

hippocampal CA1 neurons [3] = assay: Forebrain ischemia/reperfusion (four vessel occlusion), hippocampal CA1 neuronal cell death, icv administration
Experimental: Each column indicates viable cell number 7 days after 15 min ischemia of the forebrain of rats which were intracerebroventricularly administered the vehicle alone or the vehicle containing varying amounts of PACAP38. The numbers of cells are expressed by percentages of live cells as compared with the cells in the same area of the intact rat hippocampus. […] FIGS. 13A-F are microphotographs of coronal sections of the right hippocampal CA1 from intact rats and rats subjected to forebrain ischemia for 15 min. The sections were stained with cresyl violet (A, B, C) and immunostained for MAPII (D, E, F). A, D: Intact rats. B, E: 7 days after ischemia in vehicle-infused (icv) rats. […] PACAP38 administration started immediately after ischemia.
Adult male rats of CD strain weighing 270-300 g body weight (Charles River Breeding labs, Wilmington, Miss.) were used. Under Ketamine anesthesia, the bilateral vertebrate arteries were permanently occluded at the first cervical vertebra by electrocoagulation. Bilateral carotid arteries were exposed and a loop of silicon rubber tubing was placed around each carotid artery, leaving the end of the tubing outside the suture. The animal was left in the laboratory with water, but without food. The following morning, both loops around the carotid arteries were pulled and artery clips were applied on the loops at the portion close to the skin so that both carotid arteries were occluded and ischemia of the brain occurred as long as the clips remained. The clips were removed 15 minutes later. During ischemia, body temperature was monitored by thermometer placed in the rectum and the body temperature was maintained at 37° C. by radiation heat from light bulb. […] Reperfusion of bilateral carotid arteries was assured by direct visual examination. The incision wound was closed.
Soon after the reperfusion of the carotid arteries began, the animal was placed on a stereotaxic instrument, the skull was exposed, and a small hole was made by a dental drill at anterior 0.6 lateral 1.5, vertical 5.0 mm from the bregma and skull surface, and guided cannula (Alza Corp., Palo Alto, Calif.) was inserted into the hole so that the tip of the cannula is in the lateral cerebroventricle and fixed on the skull by dental cement. The incised skin was then closed by suture. Then 10 μl of artificial cerebrospinal fluid (CSF) containing 0.1% bovine serum albumin (ESA) or the vehicle containing varying amounts of PACAP38 was introduced.
PACAP38 was icv infused into the right lateral cerebroventricle of rats having neuronal cell damage in the CA1 of the hippocampus as discussed in example 5. The effect of the icv infusion of PACAP38 on ischemia-induced neuronal cell death in the hippocampal CA1 in rats was measured.

[4] = tested on: dissociated hippocampal cultures; assay: Prevention of gp120-induced neuronal cell death in dissociated hippocampal cultures; type: cell-based, mice; conditions: 1 pM gp120, five days
Experimental: The cultures were prepared from 16-17 day-old mice embryos (C57B1/6) as previously described. Brenneman, et al., Nature 335: 639-642 (1988). Before treatment, the cultures were given a complete change of medium. […] Cell counts were conducted on 60 fields, 0.12 mm^2 each. Neurons were identified immunocytochemically using antiserum against neuron specific enolase. Schmechel, et al., Nature 276: 834-836 (1978). Each value is the mean of 3-5 dishes.
Brenneman, et al. Nature 335: 639-642 (1988). […] Brenneman, et al. Nature 335: 639-642 (1988). […] Arimura, et al., Trends Endocr. Metab. 3: 288-294 (1993). Arimura et al., Ann NY Acad. Sci. 739:228-243 (1994).

hippocampal CA1 neurons [5] = assay: Forebrain ischemia, hippocampal CA1 neuronal cell death, iv infusion started immediately after ischemia; type: in vivo, rat
Experimental: as §1
PACAP38 was administered i.v. to rats (see example 5) over one week, starting immediately after ischemia/reperfusion. […] In this experiment, 20 μg/kg (approximately 4 nmol/kg) was given as a bolus iv injection before the infusion began.

[6] = tested on: dorsomedial population of dorsal root ganglia (DRG18); assay: Natural neuronal cell death in dorsal root ganglion DRG18 of chick embryo; conditions: 25 nM in the egg daily E3 1/2 to E8 1/2, counted on E9, p<0.01
Experimental: The control group received vehicle and the experimental group received PACAP38 (25 nM in the egg) daily from E3 ½ to E8 ½. Number is the mean of the numbers of degenerating cells in 6 ganglia in each group. Bar indicates SEM.
Effect of PACAP on natural neuronal cell death was also examined in chick embryos using similar experimental procedures described by Hamburger and Montalcini. […] Fertilized White Leghorn eggs (Troslow Farms) were incubated at 39 C. at 99% humidity. A small hole was opened at the top of the egg on E3 ½ (Stage 23) by punching with micro-dissecting tweezers. One μl/g of egg weight of sterile Tyrode solution or solution containing 5 μM or 25 μM PACAP38 was administered daily through the hole onto the highly vascularized chorioallantoic membrane from day E3 ½ through E8 ½ in the experiment for dorsal root ganglion (DRG), and from E6 through E9 for lumbar motor column (LMC). […]
The magnification used (×400), one can observe DRG18 divided into two populations of cells: large differentiating ventrolateral (VL) and small, late differentiating dorsomedial (DM) cells. […] Macrophages containing debris of several cells were encountered rarely and counted as two degenerating cells. Every second section of the ganglia was counted, and the sum multiplied by two to obtain a data point. A total of 6 ganglia were counted in each of the control and experimental groups, respectively.

[7] = tested on: motoneurons in the lateral motor column (LMC); assay: Survival of motoneurons in lumbar lateral motor column of chick embryo
Experimental: Embryos received vehicle, or 5 nM or 25 nM PACAP (concentrations in the egg after injection) daily from E6 to E9. Average LMC is represented by 320-340 sections and cell counts were made on every tenth section. Sum of live cells in all counted sections multiplied by 10 is shown in this figure. Numbers indicate mean numbers of live cells in 6 LMC in each group. Bars indicate SME.
Effect of PACAP on natural neuronal cell death was also examined in chick embryos using similar experimental procedures described by Hamburger and Montalcini. […] Fertilized White Leghorn eggs (Troslow Farms) were incubated at 39 C. at 99% humidity. A small hole was opened at the top of the egg on E3 ½ (Stage 23) by punching with micro-dissecting tweezers. […]
In the lumbar motor column (LMC), intact motoneurons were easily distinguishable from surrounding cells due to their large size and deeply stained perikaryon. Only those neurons with an intact nuclear membrane and at least one visible nucleolus were counted as live cells. Every tenth section of the LMC was counted, and the sum of the sections multiplied by ten to obtain a data point. A total of 6 motor columns was counted in each of the control and experimental groups.

[8] = tested on: cultured rat neurons, intracellular cAMP; assay: cAMP response in cultured rat neurons (RIA); type: cell-based; conditions: neuron cultures
Experimental: Neuron cultures were prepared from brains of 1 day-old rats. 1×10^7 cells were plated in each dish (35 mm diameter).
(§2) Yada, et al., J. Biol. Chem. 269: 1290-1293 (1994).

[9] = tested on: cultured rat astrocytes, intracellular cAMP; assay: cAMP response in cultured rat astrocytes (RIA); type: cell-based; conditions: astrocyte cultures
Experimental: Astrocytes cultures were prepared from brain of neonatal rats. Astrocytes were allowed to proliferate for 7-10 days before experiments.
as §2

CNS cultures, cAMP = assay: cAMP in CNS cultures at the peptide concentrations that increase neuronal survival; type: cell-based; conditions: 0.1 nM, any CNS culture system
Type I PACAP receptor = biological target: T2, Type I PACAP receptor (Homo sapiens, UniProt P41586); conditions: cited from earlier work
T2 sequence (P41586 21-468): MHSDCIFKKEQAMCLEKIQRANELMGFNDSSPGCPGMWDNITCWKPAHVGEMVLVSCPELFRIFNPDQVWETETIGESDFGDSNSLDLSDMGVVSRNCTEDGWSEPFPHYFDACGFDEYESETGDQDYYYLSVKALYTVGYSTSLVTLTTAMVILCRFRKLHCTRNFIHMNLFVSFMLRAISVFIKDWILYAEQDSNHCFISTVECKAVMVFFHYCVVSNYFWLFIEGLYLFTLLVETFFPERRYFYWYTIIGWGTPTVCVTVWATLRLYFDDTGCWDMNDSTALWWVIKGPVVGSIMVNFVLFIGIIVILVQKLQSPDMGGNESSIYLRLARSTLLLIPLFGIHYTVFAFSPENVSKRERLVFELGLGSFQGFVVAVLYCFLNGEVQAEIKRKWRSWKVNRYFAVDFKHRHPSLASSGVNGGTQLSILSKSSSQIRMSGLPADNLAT

[10] = tested on: dissociated hippocampal cultures; conditions: cited from earlier work
[11] = rat, in vivo
Experimental: FIG. 15 is a graph showing ^125I -PACAP 38 levels in brain tissue 10 minutes after icv injection, at 1×10^6 cpm ^125I-PACAP38.
This calculation was based on the transport of ^125I-labelled peptide given icv as a bolus but slow injection over 5 min. 1×10^6 cpm ^125I-PACAP38 was injected icv in anesthetized rats, the cpm in the brain tissues 10 min after the injection is shown in FIG. 15.
The labelled peptide was injected into the right lateral ventricle.

[12] = biological target: T3, PACAP receptor (PACAP binding sites) in rat brain membrane preparations (rat, UniProt P32215 20-523); assay: Scatchard analysis of displacement of 125I-PACAP27, E18 rat brain membranes; reference PACAP27
T3 construct: whole, on cells; Native receptor in crude brain membranes, not a recombinant protein; also called the receptor
T3 sequence (looked up): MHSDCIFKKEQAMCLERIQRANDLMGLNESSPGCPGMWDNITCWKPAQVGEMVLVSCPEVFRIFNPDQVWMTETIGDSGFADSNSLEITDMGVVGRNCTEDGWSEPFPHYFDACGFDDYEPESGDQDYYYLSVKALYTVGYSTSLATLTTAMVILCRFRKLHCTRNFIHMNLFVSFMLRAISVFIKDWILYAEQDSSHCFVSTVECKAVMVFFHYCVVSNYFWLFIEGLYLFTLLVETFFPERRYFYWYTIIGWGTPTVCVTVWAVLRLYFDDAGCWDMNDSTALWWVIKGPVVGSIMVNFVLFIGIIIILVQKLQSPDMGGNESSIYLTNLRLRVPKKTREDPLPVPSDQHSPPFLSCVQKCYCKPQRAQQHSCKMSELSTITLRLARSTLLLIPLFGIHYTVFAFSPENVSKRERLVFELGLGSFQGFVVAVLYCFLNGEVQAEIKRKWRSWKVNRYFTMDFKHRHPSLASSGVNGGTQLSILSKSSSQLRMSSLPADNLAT

Q: With “glucagon: structurally related peptide used in binding competition” as the molecule, how does the “displacement of 125I-PACAP27 binding” value [1] read?
A: The value was “did not displace”.

Q: Which “effect on ischemia-induced neuronal cell death in CA1” value (hippocampal CA1 neurons [2]; iv 16 pmol/hr) does the source give for PACAP[1-38]-NH2 [PACAP38] here?
A: The value was “significantly (<0.01) attenuated brain cell death”.

Q: What about the “effect on ischemia-induced neuronal cell death in CA1” value (hippocampal CA1 neurons [2]; iv 160 pmol/hr) of the same molecule?
A: Its value is “significantly (<0.01) attenuated brain cell death”.

Q: And the “most effective continuous icv infusion rate” value (hippocampal CA1 neurons [3]; after bolus 450 ng/10 μl H2O over 10 min, infusion over seven days, FIG. 12)?
A: The value was 45 ng/µL/h.

Q: What about the “icv dose of maximum cytoprotective effect (bell-shaped dose-response)” value (hippocampal CA1 neurons [3]; icv infusion into right lateral cerebroventricle over one week, FIG. 16) of the same molecule?
A: The value was 1 pmol/h.

Q: What about the “effect on ischemia-induced neuronal cell death in CA1” value (hippocampal CA1 neurons [3]; icv infusion over one week, viable neurons 7 days after ischemia) of the same molecule?
A: Its value is “significantly prevented the neuronal cell death”.

Q: And the “effect on ischemia-induced cell death in CA1 (histology)” value (hippocampal CA1 neurons [3]; icv osmotic pump 1 pmol/h over one week, started immediately after ischemia, 7 days)?
A: Its value is “prevented ischemia-induced cell death in CA1”.

Q: And the “most effective icv dose” value (hippocampal CA1 neurons [3]; icv over 7 days, 10, 1, 0.1 and 0.01 pmol/h tested, FIG. 14)?
A: Its value is 1 pmol/h.

Q: What about the “lower peak of bimodal dose-response curve of cytoprotection” value [4] of the same molecule?
A: The value was 0.1 pM.

Q: What about the “upper peak of bimodal dose-response curve of cytoprotection” value [4] of the same molecule?
A: Its value is 0.1 nM.

Q: And the “effect on ischemia-induced neuronal cell death in CA1” value (hippocampal CA1 neurons [5]; iv 16 pmol/hr over one week after 20 μg/kg iv bolus)?
A: Its value is “attenuated neuronal cell death significantly”.

Q: What about the “effect on ischemia-induced neuronal cell death in CA1” value (hippocampal CA1 neurons [5]; iv 160 pmol/hr over one week after 20 μg/kg iv bolus) of the same molecule?
A: The value was “attenuated neuronal cell death significantly”.

Q: What about the “number of degenerating cells less than in untreated embryos” value [6] of the same molecule?
A: The value was 37.2%.

Q: What about the “affinity for the receptor relative to PACAP27 (higher)” value [1] of the same molecule?
A: Its value is “about 10 fold”.

Q: And the “displacement of 125I-PACAP27 binding” value [1]?
A: The value was “more effectively than did PACAP27”.

Q: And the “increase in number of motoneurons per motor column” value ([7]; 5 nM in the egg daily E6 to E9, counted on E10)?
A: Its value is 7.2%.

Q: And the “increase in number of motoneurons per motor column” value ([7]; 25 nM in the egg daily E6 to E9, counted on E10)?
A: Its value is 12.5%.

Q: For “GHRH: structurally related peptide used in binding competition”, which “displacement of 125I-PACAP27 binding” value [1] is on record?
A: Its value is “did not displace”.

Q: With “secretin: structurally related peptide used in binding competition” as the molecule, how does the “displacement of 125I-PACAP27 binding” value [1] read?
A: The value was “did not displace”.

Q: With VIP: vasoactive intestinal peptide as the molecule, how does the “potency in increasing cellular cAMP, times less potent than PACAP” value [8] read?
A: Its value is “approximately 1000 times”.

Q: And the “potency in increasing cellular cAMP, times less potent than PACAP” value [9]?
A: The value was “approximately 1000 times”.

Q: And the “cAMP response at the concentration that increases neuronal survival” value (CNS cultures, cAMP)?
A: The value was “no increases in cAMP”.

Q: What about the “affinity for Type I PACAP receptor, times less than that of PACAP” value (Type I PACAP receptor) of the same molecule?
A: Its value is 1000 times.

Q: What about the “binding to Type I PACAP receptor” value (Type I PACAP receptor) of the same molecule?
A: Its value is “do not bind”.

Q: What about the “displacement of 125I-PACAP27 binding” value [1] of the same molecule?
A: The value was “did not displace”.

Q: What about the “effect on neuronal death in gp120-treated cultures” value ([10]; 0.1 nM) of the same molecule?
A: Its value is “prevented neuronal death”.

Q: What about the “effect on neuronal cell death associated with gp120 treatment” value ([10]; murine hippocampal cultures) of the same molecule?
A: The value was “potently and completely prevented”.

Q: For ^125I-PACAP38, which “CPM in right hippocampus relative to left” value [11] is on record?
A: The value was “four times greater”.

Q: And the “radioactivity in left hippocampus” value [11]?
A: The value was 5 cpm per mg tissue.

Q: And the “radioactivity in right hippocampus” value [11]?
A: Its value is 20 cpm per mg tissue.

B1: Pituitary adenylate cyclase activating polypeptide, complete form with 38 amino acids (PACAP38) (peptide)
peptide: HSDGIFTDSYSRYRKQMAVKKYLAAVLGKRYKQRVKNK-NH2
notes: Synthetic peptide made by solid phase synthesis; also called PACAP[1-38]-NH2; unlabeled PACAP38
Q: For B1, which “fold higher affinity than PACAP27” value [12] is on record?
A: The value was roughly 10 fold.
